Here are results for one molecule from patent publication US9867857B2, “Acetobacter and gluconacetobacter strains and their metabolites for use in inhibiting xanthine oxidase” (Food Industry Research And Development Institute, priority 2014, dated 2018).

SMILES strings stand for the structures.

The assay has as its system ICR mice. Put plainly: Experimental uricemia: potassium oxonate-induced high serum uric acid. Format: in vivo. The conditions noted are these: potassium oxonate 400 mg/kg + allopurinol 10 mg/kg fed, 1 h after dosing. The protocol:
Acetobacter pasteurianus strain AHU01 was inoculated onto an M1A plate and cultured for 2 days at 30° C. The plate was washed with 7 ml of sterile water as seed broth. 0.5 ml of the seed broth was inoculated into 50 ml of a custom media (1% soy peptone, 0.2% yeast extract, 3% glucose, 0.2% malt extract, and 3% fructose) in a 250 ml triangular flask and incubated with shaking at 150 rpm for 7 days at 30° C. The medium was then collected and centrifuged at 3000 rpm for 15 minutes. Following centrifugation, the supernatant was collected, lyophilized, and freeze-dried to form a solid fermentation product for use in animal experiments.
ICR mice were used as experimental animals. Potassium oxonate, a uricase inhibitor, was used to induce a high level of uric acid in the serum of the mice. Mice were fasted for one hour and then fed saline or potassium oxonate (400 mg/kg) via a feeding tube. After one hour, potassium oxonate-treated mice were fed saline, allopurinol (10 mg/kg), or the Acetobacter pasteurianus strain AHU01 fermentation product (150 mg or 200 mg resuspended in saline per mouse) prepared as described above. Ten animals were used for each experimental group and for the control group. The animals were sacrificed after one hour and the level of uric acid in their serum was analyzed.

In the case of `Oc1ncnc2[nH]ncc12` [allopurinol], the “serum uric acid concentration” value is reported as 2.82 ± 0.28 mg/dL.
